Test system: 327498-153-R-J2-PDC complex spheroid growth, % test/control
Experiment: Anticancer human tumor 327498-153-R-J2-PDC patient-derived uterine carcinosarcoma cell line growth inhibition [Asc]
Details: for IC50: curve of first compound; for viability, T/C: stronger effect = lower value
In short: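 Complex solid-tumor spheroids incorporating human endothelial and mesenchymal stem cells received single agents or combinations over half-log dilution ranges anchored to clinical Cmax.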
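Also: spheroids exposed to compound for 7 days after 3 days of growth.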
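For viability, T/C in this document: 100% = DMSO vehicle control wells.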

Structure (SMILES): CCN1C(C(=O)NC23CCC(C(=O)O)(CC2)CC3)C(c2cccc(Cl)c2F)C2(C(=O)Nc3cc(Cl)ccc32)C12CCCCC2 (stereo not given) + CNC(C)C(=O)NC1CN(S(=O)(=O)c2cccc(S(=O)(=O)N3CCC4CCC(C(=O)NC(c5ccccc5)c5ccccc5)N4C(=O)C(NC(=O)C(C)NC)C3)c2)CCC2CCC(C(=O)NC(c3ccccc3)c3ccccc3)N2C1=O
- IC50 (second compound 0.01 µM): 193 nM
- IC50 (second compound 0.0316 µM): 151 nM
- IC50 (second compound 0.1 µM): 173 nM
- IC50 (second compound 0.316 µM): 173 nM
- IC50 (second compound 1 µM): 150 nM
- viability, T/C (second compound 0.01 µM, first compound 0.00949 µM): 88.1%
- viability, T/C (second compound 0.01 µM, first compound 0.03 µM): 90.9%
- viability, T/C (second compound 0.01 µM, first compound 0.0949 µM): 72.2%
- viability, T/C (second compound 0.01 µM, first compound 0.3 µM): 35.9%
- viability, T/C (second compound 0.01 µM, first compound 0.949 µM): 8.7%
- viability, T/C (second compound 0.01 µM, first compound 3 µM): 3.12%
- viability, T/C (second compound 0.0316 µM, first compound 0.00949 µM): 90.8%
- viability, T/C (second compound 0.0316 µM, first compound 0.03 µM): 83.9%
- viability, T/C (second compound 0.0316 µM, first compound 0.0949 µM): 62%
- viability, T/C (second compound 0.0316 µM, first compound 0.3 µM): 32.4%
- viability, T/C (second compound 0.0316 µM, first compound 0.949 µM): 7.36%
- viability, T/C (second compound 0.0316 µM, first compound 3 µM): 1.14%
- viability, T/C (second compound 0.1 µM, first compound 0.00949 µM): 97.8%
- viability, T/C (second compound 0.1 µM, first compound 0.03 µM): 87.8%
- viability, T/C (second compound 0.1 µM, first compound 0.0949 µM): 67.2%
- viability, T/C (second compound 0.1 µM, first compound 0.3 µM): 35.1%
- viability, T/C (second compound 0.1 µM, first compound 0.949 µM): 9.87%
- viability, T/C (second compound 0.1 µM, first compound 3 µM): 1.93%
- viability, T/C (second compound 0.316 µM, first compound 0.00949 µM): 101%
- viability, T/C (second compound 0.316 µM, first compound 0.03 µM): 89.7%
- viability, T/C (second compound 0.316 µM, first compound 0.0949 µM): 67.1%
- viability, T/C (second compound 0.316 µM, first compound 0.3 µM): 35.8%
- viability, T/C (second compound 0.316 µM, first compound 0.949 µM): 9.28%
- viability, T/C (second compound 0.316 µM, first compound 3 µM): 5.81%
- viability, T/C (second compound 1 µM, first compound 0.00949 µM): 100%
- viability, T/C (second compound 1 µM, first compound 0.03 µM): 82.1%
- viability, T/C (second compound 1 µM, first compound 0.0949 µM): 64.8%
- viability, T/C (second compound 1 µM, first compound 0.3 µM): 32.3%
- viability, T/C (second compound 1 µM, first compound 0.949 µM): 4.68%
- viability, T/C (second compound 1 µM, first compound 3 µM): 1.29%

Structure (SMILES): CNC(C)C(=O)NC1CN(S(=O)(=O)c2cccc(S(=O)(=O)N3CCC4CCC(C(=O)NC(c5ccccc5)c5ccccc5)N4C(=O)C(NC(=O)C(C)NC)C3)c2)CCC2CCC(C(=O)NC(c3ccccc3)c3ccccc3)N2C1=O (stereo not given) + CCN1C(C(=O)NC23CCC(C(=O)O)(CC2)CC3)C(c2cccc(Cl)c2F)C2(C(=O)Nc3cc(Cl)ccc32)C12CCCCC2
- IC50 (second compound 0.03 µM): > 1000 nM
- IC50 (second compound 0.0949 µM): > 1000 nM
- IC50 (second compound 0.3 µM): < 3.16 nM
- IC50 (second compound 0.949 µM): < 3.16 nM
- IC50 (second compound 3 µM): < 3.16 nM
- viability, T/C (second compound 0.03 µM, first compound 0.00316 µM): 92.8%
- viability, T/C (second compound 0.03 µM, first compound 0.01 µM): 84.1%
- viability, T/C (second compound 0.03 µM, first compound 0.0316 µM): 85.6%
- viability, T/C (second compound 0.03 µM, first compound 0.1 µM): 91.7%
- viability, T/C (second compound 0.03 µM, first compound 0.316 µM): 89.2%
- viability, T/C (second compound 0.03 µM, first compound 1 µM): 73.3%
- viability, T/C (second compound 0.0949 µM, first compound 0.00316 µM): 86.3%
- viability, T/C (second compound 0.0949 µM, first compound 0.01 µM): 70.2%
- viability, T/C (second compound 0.0949 µM, first compound 0.0316 µM): 63.5%
- viability, T/C (second compound 0.0949 µM, first compound 0.1 µM): 65.8%
- viability, T/C (second compound 0.0949 µM, first compound 0.316 µM): 65.4%
- viability, T/C (second compound 0.0949 µM, first compound 1 µM): 60.4%
- viability, T/C (second compound 0.3 µM, first compound 0.00316 µM): 41.7%
- viability, T/C (second compound 0.3 µM, first compound 0.01 µM): 36.5%
- viability, T/C (second compound 0.3 µM, first compound 0.0316 µM): 35.1%
- viability, T/C (second compound 0.3 µM, first compound 0.1 µM): 24.6%
- viability, T/C (second compound 0.3 µM, first compound 0.316 µM): 35.6%
- viability, T/C (second compound 0.3 µM, first compound 1 µM): 30.3%
- viability, T/C (second compound 0.949 µM, first compound 0.00316 µM): 13.8%
- viability, T/C (second compound 0.949 µM, first compound 0.01 µM): 9.3%
- viability, T/C (second compound 0.949 µM, first compound 0.0316 µM): 5.92%
- viability, T/C (second compound 0.949 µM, first compound 0.1 µM): 4.78%
- viability, T/C (second compound 0.949 µM, first compound 0.316 µM): 6.7%
- viability, T/C (second compound 0.949 µM, first compound 1 µM): 8.64%
- viability, T/C (second compound 3 µM, first compound 0.00316 µM): 3.86%
- viability, T/C (second compound 3 µM, first compound 0.01 µM): 2.08%
- viability, T/C (second compound 3 µM, first compound 0.0316 µM): 2.54%
- viability, T/C (second compound 3 µM, first compound 0.1 µM): 1.28%
- viability, T/C (second compound 3 µM, first compound 0.316 µM): 2.31%
- viability, T/C (second compound 3 µM, first compound 1 µM): 1.12%

Structure (SMILES): C#Cc1c(F)ccc2cc(O)cc(-c3ncc4c(N5CC6CCC(C5)N6)nc(OCC56CCCN5CC(F)C6)nc4c3F)c12 (stereo not given) + Cc1c(S(C)(=O)=O)c(-c2cc(F)cc(N3CCN(c4ccc(NS(=O)(=O)c5ccc(NC(CCN6CCC(C(=O)OCCCP(=O)(O)O)CC6)CSc6ccccc6)c(S(=O)(=O)C(F)(F)F)c5)cc4)CC3)c2)c(-c2ccc(Cl)cc2)n1C(C)C
- IC50 (second compound 0.1 µM): > 10000 nM
- IC50 (second compound 0.316 µM): 5990 nM
- IC50 (second compound 1 µM): 3180 nM
- IC50 (second compound 3.16 µM): 5040 nM
- IC50 (second compound 10 µM): > 10000 nM
- viability, T/C (second compound 0.1 µM, first compound 0.0316 µM): 97.2%
- viability, T/C (second compound 0.1 µM, first compound 0.1 µM): 107%
- viability, T/C (second compound 0.1 µM, first compound 0.316 µM): 82.5%
- viability, T/C (second compound 0.1 µM, first compound 1 µM): 75.1%
- viability, T/C (second compound 0.1 µM, first compound 3.16 µM): 61.7%
- viability, T/C (second compound 0.1 µM, first compound 10 µM): 50.1%
- viability, T/C (second compound 0.316 µM, first compound 0.0316 µM): 102%
- viability, T/C (second compound 0.316 µM, first compound 0.1 µM): 88.9%
- viability, T/C (second compound 0.316 µM, first compound 0.316 µM): 88.3%
- viability, T/C (second compound 0.316 µM, first compound 1 µM): 65.8%
- viability, T/C (second compound 0.316 µM, first compound 3.16 µM): 53.8%
- viability, T/C (second compound 0.316 µM, first compound 10 µM): 47.3%
- viability, T/C (second compound 1 µM, first compound 0.0316 µM): 90.6%
- viability, T/C (second compound 1 µM, first compound 0.1 µM): 101%
- viability, T/C (second compound 1 µM, first compound 0.316 µM): 81%
- viability, T/C (second compound 1 µM, first compound 1 µM): 71.1%
- viability, T/C (second compound 1 µM, first compound 3.16 µM): 47.9%
- viability, T/C (second compound 1 µM, first compound 10 µM): 43.8%
- viability, T/C (second compound 3.16 µM, first compound 0.0316 µM): 96.6%
- viability, T/C (second compound 3.16 µM, first compound 0.1 µM): 87.5%
- viability, T/C (second compound 3.16 µM, first compound 0.316 µM): 70.8%
- viability, T/C (second compound 3.16 µM, first compound 1 µM): 69.7%
- viability, T/C (second compound 3.16 µM, first compound 3.16 µM): 51.4%
- viability, T/C (second compound 3.16 µM, first compound 10 µM): 44.4%
- viability, T/C (second compound 10 µM, first compound 0.0316 µM): 166%
- viability, T/C (second compound 10 µM, first compound 0.1 µM): 165%
- viability, T/C (second compound 10 µM, first compound 0.316 µM): 150%
- viability, T/C (second compound 10 µM, first compound 1 µM): 145%
- viability, T/C (second compound 10 µM, first compound 3.16 µM): 133%
- viability, T/C (second compound 10 µM, first compound 10 µM): 86.6%
